No end group written: not given here.
Experiments:
[1] = target: T1, Pex5p-pbd (PTS1 binding domain of human Pex5p, amino acids 235–602) (Homo sapiens, UniProt P50542); experiment: Isothermal titration calorimetry of AGT proteins and PTS1 nonapeptides with Pex5p-pbd; settings: for -TΔS / ΔG / ΔH / decrease in the enthalpic penalty (more favorable enthalpic contribution) to binding compared to the natural PTS1 sequence / N (binding stoichiometry) / Kd: ITC; for -TΔS / ΔG / ΔH / N (binding stoichiometry) / Kd: pH 7.4, 25 °C; for ΔCp: from the linear dependence of ΔH on temperature, 10–35 °C, pH 7.4; for decrease in the enthalpic penalty (more favorable enthalpic contribution) to binding compared to the natural PTS1 sequence: 25 °C, full-length AGT / AGT-LRM background; for N (binding stoichiometry): 20 mM Na-HEPES, 200 mM NaCl, AGT protein in cell titrated with Pex5p-pbd
T1 construct: Pex5p-pbd; amino acids 235–602; hexa-histidine (N); made in house
Experimental: Calorimetric measurements were carried out using a MicroCal ITC200 microcalorimeter (MicroCal, Malvern Instruments) with 205.9 μL cell volume. All the experiments were performed using 20 mM Na-HEPES (or Na-Phosphate), 200 mM NaCl, pH 7.4. […] Each titration was initiated by a 0.5 μL injection followed by 14–30 injections of 1.2–2.5 μL (spaced 150 s). Heats of dilution were determined experimentally from blank titrations. The association constants (Ka), binding enthalpy changes (ΔH), as well as the binding stoichiometries (N), were obtained by non-linear regression analysis using a one-independent-type-of-sites binding model implemented in the Origin 7.0. Software (Origin Lab Co., Northampton, MA, USA).

CHO cells [2] = experiment: Confocal immunofluorescence colocalization of AGT with mitochondria (Mitotracker) in transfected CHO cells; format: cell-based, Chinese hamster; settings: transiently transfected CHO cells, fixed 72 h after transfection; mean ± S.E.; SEM
Experimental: (§1) Chinese hamster ovary (CHO) cells (ATTC, Rockville, MD USA) were grown in alpha-minimal essential medium (α-MEM, Lonza, Köln, Germany) supplemented with glutamine, penicillin/streptomycin and 5% fetal bovine serum. Cell transfections were performed using AGT cDNA variants (AGT-LRM or AGT-LRM-SKL) subcloned in pCIneo plasmids (Promega) with Transfast reagent (Promega, Madison, WI, USA), following manufacturer’s guidelines. After 24 h, cells were passed to plates containing 13 mm glass coverslips for immunofluorescence studies. Mitochondria in half the coverslips were labeled by incubation with Mitotracker (CMXRos, Invitrogen, Carlsbad, CA, USA) at the end of the culture. […]
(§2) For quantitative immune-colocalization, the system was optimized to detect two fluorescent signals in one specimen: one in the green channel detector for protein of interest AGT-LRM or AGT-LRM-SKL and the other in the red channel, for either mitochondria labeled with mitotracker or peroxisomes labeled with peroxisomal membrane protein 70 (PMP70) antibody. […] Colocalization events (or the lack thereof) were analyzed quantitatively with FluoView software (Olympus, Tokyo, Japan) and ImageJ software (NIH, Bethesda, MD, USA) with the JACoP plugin, based on a global statistic approach that conducts an intensity correlation coefficient-based examination. […]

CHO cells [3] = experiment: Confocal immunofluorescence colocalization of AGT with peroxisomes (PMP70) in transfected CHO cells; format: cell-based, Chinese hamster; settings: mean ± S.E., SEM
Experimental: as §1, §2

Pex5p = settings: PTS1 octapeptide sequences; read-out: Kd (nM), previously determined dissociation constant; cited from earlier work
Description: The protein sequence in which these octapeptides are naturally found, as well as their previously determined dissociation constant, are indicated [7].

[4] = AGT proteins, mean ± s.d. of three independent titrations, SD
[5] = mean ± s.d. of three independent titrations, SD
[6] = PTS1 nonapeptides (500 μM) titrated into Pex5p-pbd (20 μM), means of two independent titrations

Substance: QHCPK S KL [AGT-SKL]
- -TΔS [1, 4]: -11.8 ± 0.406 kcal/mol
- ΔG [1, 4]: -10.3 ± 0.22 kcal/mol
- ΔH [1, 4]: 1.51 ± 0.19 kcal/mol
- ΔCp ([1]; AGT proteins): −2.7 ± 0.1 kJ/mol·K
- decrease in the enthalpic penalty (more favorable enthalpic contribution) to binding compared to the natural PTS1 sequence [1]: about 16 kJ/mol
- N (binding stoichiometry) [1, 5]: 0.8 ± 0.1
- Pearson Rr, AGT + Mitotracker (CHO cells [2]): 0.47 ± 0.08
- % Coloc (Manders' m), AGT + PMP70 (CHO cells [3]; CHO cells, given as fraction, split Manders' M1 in situation 2, Manders' overlap R in situation 4): 0.84 ± 0.08
- Pearson Rr, AGT + PMP70 (CHO cells [3]; transiently transfected CHO cells, fixed 72 h after transfection): 0.79 ± 0.08

Substance: QHCPKKKL [AGT, alanine: glyoxylate aminotransferase, reference compound]
- -TΔS [1, 4]: -13.2 ± 0.287 kcal/mol
- Kd [1, 4]: 1400 ± 200 nM
- ΔG [1, 4]: -8.01 ± 0.096 kcal/mol
- ΔH [1, 4]: 5.19 ± 0.884 kcal/mol
- ΔCp ([1]; AGT proteins): −2.5 ± 0.4 kJ/mol·K
- N (binding stoichiometry) [1, 5]: 1.0 ± 0.1

Substance: VAQATC KL [HMG, reference compound]
- decrease in the enthalpic penalty (more favorable enthalpic contribution) to binding compared to the natural PTS1 sequence [1]: about 16 kJ/mol
- Kd (Pex5p): 2000 nM

Substance: VGSL K S KL [ACO]
- Kd (Pex5p): 1.6 nM

Substance: YQHCPKKKL [pAGT]
- Kd [1, 6]: 19000 nM

Substance: YQHCPKSKL [pAGT-SKL]
- Kd [1, 6]: 29 nM

Substance: YQSHPRAKL [pCRA]
- Kd [1, 6]: 157 nM

Substance: YVGSLKSKL [pACO]
- Kd [1, 6]: 14 nM

— paper PMC4384115, “Molecular Recognition of PTS-1 Cargo Proteins by Pex5p: Implications for Protein Mistargeting in Primary Hyperoxaluria” (Biomolecules, 2015)
